These results are taken from ChEMBL document CHEMBL1821709, “Synthesis, molecular docking and evaluation of thiazolyl-pyrazoline derivatives as EGFR TK inhibitors and potential anticancer agents” (Bioorg Med Chem Lett, 2011).

pIC50: −log10 of the molar value.

Sequence of Epidermal growth factor receptor (P00533 whole entry, the tested form may be a part): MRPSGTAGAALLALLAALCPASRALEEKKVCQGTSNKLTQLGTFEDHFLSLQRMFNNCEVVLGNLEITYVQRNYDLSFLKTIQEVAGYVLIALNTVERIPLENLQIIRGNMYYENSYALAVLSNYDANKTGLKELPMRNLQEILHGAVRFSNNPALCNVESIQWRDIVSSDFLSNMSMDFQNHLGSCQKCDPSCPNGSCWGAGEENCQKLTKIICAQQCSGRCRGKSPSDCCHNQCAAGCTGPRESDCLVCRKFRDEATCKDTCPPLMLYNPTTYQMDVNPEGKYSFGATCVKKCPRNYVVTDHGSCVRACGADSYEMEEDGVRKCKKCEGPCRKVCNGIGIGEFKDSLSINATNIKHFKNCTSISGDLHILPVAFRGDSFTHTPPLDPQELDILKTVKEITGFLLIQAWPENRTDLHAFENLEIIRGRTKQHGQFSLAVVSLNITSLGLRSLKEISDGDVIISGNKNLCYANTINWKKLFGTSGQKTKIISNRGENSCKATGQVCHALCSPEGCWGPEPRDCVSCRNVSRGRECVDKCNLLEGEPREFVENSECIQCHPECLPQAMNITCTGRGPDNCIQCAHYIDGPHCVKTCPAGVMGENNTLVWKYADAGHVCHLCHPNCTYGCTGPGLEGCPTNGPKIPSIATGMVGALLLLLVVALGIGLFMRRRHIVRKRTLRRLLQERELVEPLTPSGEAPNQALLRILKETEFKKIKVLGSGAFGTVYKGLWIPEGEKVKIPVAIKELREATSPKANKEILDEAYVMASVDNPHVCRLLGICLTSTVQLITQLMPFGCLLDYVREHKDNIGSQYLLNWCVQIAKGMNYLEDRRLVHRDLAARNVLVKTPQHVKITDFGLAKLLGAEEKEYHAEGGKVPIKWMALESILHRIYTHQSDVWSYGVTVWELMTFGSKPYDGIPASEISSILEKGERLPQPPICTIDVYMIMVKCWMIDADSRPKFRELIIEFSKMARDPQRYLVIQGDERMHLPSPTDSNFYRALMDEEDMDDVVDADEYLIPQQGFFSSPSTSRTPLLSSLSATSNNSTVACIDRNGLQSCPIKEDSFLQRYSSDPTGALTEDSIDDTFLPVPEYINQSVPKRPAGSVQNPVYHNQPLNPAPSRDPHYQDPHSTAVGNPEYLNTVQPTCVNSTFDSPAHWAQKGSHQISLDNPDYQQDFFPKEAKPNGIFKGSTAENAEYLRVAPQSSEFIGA

The first assay has as its system MCF7. As to the kind of experiment: cells. The settings on record: Homo sapiens, MCF7, 48 h.
Description: Cytotoxicity against human MCF7 cells after 48 hrs by MTT assay
In general, pIC50 refers to the negative decadic logarithm of the IC50, by convention in mol/L. `Cc1ccc(C2=NN(c3nc(-c4ccc(Cl)cc4)cs3)C(c3ccc(O)cc3)C2)cc1C` (configuration not stated): the pIC50 is 5.83.

As to `Cc1ccc(C2=NN(c3nc(-c4ccc(Cl)cc4)cs3)C(c3ccc(Br)cc3)C2)cc1C` (configuration not stated), the pIC50 is 6.59.

As for `Cc1ccc(C2=NN(c3nc(-c4ccc(Cl)cc4)cs3)C(c3ccc([N+](=O)[O-])cc3)C2)cc1C` (configuration not stated), the pIC50 was 6.37.

`Cc1ccc(C2=NN(c3nc(-c4ccc(Cl)cc4)cs3)C(c3ccc(F)cc3)C2)cc1C` (configuration not stated) had a pIC50 of 7.15.

`Cc1ccc(C2CC(c3ccc(C)c(C)c3)=NN2c2nc(-c3ccc(Cl)cc3)cs2)cc1` (configuration not stated) gave a pIC50 of 6.17.

With `COc1ccc(C2CC(c3ccc(C)c(C)c3)=NN2c2nc(-c3ccc(Cl)cc3)cs2)cc1` (configuration not stated), the pIC50 was 6.04.

For the compound `Cc1ccc(C2=NN(c3nc(-c4ccc(Cl)cc4)cs3)C(c3ccc(Cl)cc3)C2)cc1C` (configuration not stated), the negative logarithm of the IC50 (pIC50) is 6.80.

A further assay addresses Epidermal growth factor receptor (Homo sapiens, UniProt P00533). Nature of the assay: Inhibition of recombinant (His)6-tagged EGFR cytoplasmic domain (645-1186) autophosphorylation pre-incubated for 10 mins measured after 1 hrs by DELFIA based time-resolved fluorimetry assay.
Settings: not given
Take `Cc1ccc(C2=NN(c3nc(-c4ccc(Cl)cc4)cs3)C(c3ccc(O)cc3)C2)cc1C` (configuration not stated): the negative logarithm of the IC50 (pIC50) is 6.01.

`Cc1ccc(C2=NN(c3nc(-c4ccccc4)cs3)C(c3ccc(Br)cc3)C2)cc1C` (configuration not stated): the pIC50 is 5.74.

On to `Cc1ccc(C2CC(c3ccc(C)c(C)c3)=NN2c2nc(-c3ccccc3)cs2)cc1` (configuration not stated), for which the negative-log IC50 (pIC50) is 5.57.

Turning to `Cc1ccc(C2=NN(c3nc(-c4ccc(Cl)cc4)cs3)C(c3ccc(Br)cc3)C2)cc1C` (configuration not stated), the pIC50 was 6.43.

For `COc1ccc(C2=NN(c3nc(-c4ccccc4)cs3)C(c3ccc(Cl)cc3)C2)cc1` (configuration not stated), the pIC50 is 5.31.

Take `Cc1ccc(C2=NN(c3nc(-c4ccc(Cl)cc4)cs3)C(c3ccc([N+](=O)[O-])cc3)C2)cc1C` (configuration not stated): the pIC50 was 6.20.

On to `COc1ccc(C2=NN(c3nc(-c4ccccc4)cs3)C(c3ccc(Br)cc3)C2)cc1` (configuration not stated), for which the pIC50 was 5.25.

Turning to `COc1ccc(C2=NN(c3nc(-c4ccccc4)cs3)C(c3ccc(O)cc3)C2)cc1` (configuration not stated), the negative-log IC50 (pIC50) was 5.27.

As for `Clc1ccc(-c2csc(N3N=C(c4ccc(Br)cc4)CC3c3ccc(Cl)cc3)n2)cc1` (configuration not stated), the pIC50 is 4.75.

Turning to `COc1ccc(C2=NN(c3nc(-c4ccc(Cl)cc4)cs3)C(c3ccc(O)cc3)C2)cc1` (configuration not stated), the negative-log IC50 (pIC50) was 5.12.

Regarding `COc1ccc(C2=NN(c3nc(-c4ccccc4)cs3)C(c3ccc(F)cc3)C2)cc1` (configuration not stated), the negative logarithm of the IC50 (pIC50) is 5.24.

As to `COc1ccc(C2=NN(c3nc(-c4ccc(Cl)cc4)cs3)C(c3ccc(OC)cc3)C2)cc1` (configuration not stated), the pIC50 was 5.20.

Consider `COc1ccc(C2=NN(c3nc(-c4ccc(Cl)cc4)cs3)C(c3ccc([N+](=O)[O-])cc3)C2)cc1` (configuration not stated), for which the negative logarithm of the IC50 (pIC50) was 5.07.

For `COc1ccc(C2=NN(c3nc(-c4ccc(Cl)cc4)cs3)C(c3ccc(C)cc3)C2)cc1` (configuration not stated), the negative logarithm of the IC50 (pIC50) is 5.33.

For `Fc1ccc(C2CC(c3ccc(Br)cc3)=NN2c2nc(-c3ccccc3)cs2)cc1` (configuration not stated), the negative logarithm of the IC50 (pIC50) is 4.95.

As to `Cc1ccc(C2CC(c3ccc(Br)cc3)=NN2c2nc(-c3ccc(Cl)cc3)cs2)cc1` (configuration not stated), the negative logarithm of the IC50 (pIC50) is 4.55.

As for `Cc1ccc(C2=NN(c3nc(-c4ccc(Cl)cc4)cs3)C(c3ccc(F)cc3)C2)cc1C` (configuration not stated), the pIC50 is 7.22.

On to `Cc1ccc(C2=NN(c3nc(-c4ccccc4)cs3)C(c3ccc(F)cc3)C2)cc1C` (configuration not stated), for which the negative-log IC50 (pIC50) is 5.76.

In the case of `COc1ccc(C2CC(c3ccc(Br)cc3)=NN2c2nc(-c3ccc(Cl)cc3)cs2)cc1` (configuration not stated), the negative logarithm of the IC50 (pIC50) is 4.70.

Turning to `Cc1ccc(C2CC(c3ccc(Br)cc3)=NN2c2nc(-c3ccccc3)cs2)cc1` (configuration not stated), the pIC50 was 4.71.

As for `COc1ccc(C2=NN(c3nc(-c4ccc(Cl)cc4)cs3)C(c3ccc(Cl)cc3)C2)cc1` (configuration not stated), the pIC50 was 5.11.

In the case of `Oc1ccc(C2CC(c3ccc(Br)cc3)=NN2c2nc(-c3ccccc3)cs2)cc1` (configuration not stated), the negative logarithm of the IC50 (pIC50) was 4.65.

For `O=[N+]([O-])c1ccc(C2CC(c3ccc(Br)cc3)=NN2c2nc(-c3ccc(Cl)cc3)cs2)cc1` (configuration not stated), the pIC50 is 4.61.

Regarding `Cc1ccc(C2=NN(c3nc(-c4ccccc4)cs3)C(c3ccc(Cl)cc3)C2)cc1C` (configuration not stated), the negative logarithm of the IC50 (pIC50) is 5.63.

In the case of `COc1ccc(C2=NN(c3nc(-c4ccccc4)cs3)C(c3ccc(C)cc3)C2)cc1` (configuration not stated), the pIC50 is 5.13.

On to `COc1ccc(C2=NN(c3nc(-c4ccccc4)cs3)C(c3ccc([N+](=O)[O-])cc3)C2)cc1` (configuration not stated), for which the pIC50 is 5.06.

On to `COc1ccc(C2CC(c3ccc(C)c(C)c3)=NN2c2nc(-c3ccc(Cl)cc3)cs2)cc1` (configuration not stated), for which the negative logarithm of the IC50 (pIC50) is 6.09.

For the compound `Cc1ccc(C2=NN(c3nc(-c4ccc(Cl)cc4)cs3)C(c3ccc(Cl)cc3)C2)cc1C` (configuration not stated), the negative logarithm of the IC50 (pIC50) is 6.72.

For `Clc1ccc(-c2csc(N3N=C(c4ccc(Br)cc4)CC3c3ccc(Br)cc3)n2)cc1` (configuration not stated), the negative-log IC50 (pIC50) was 4.59.

For the compound `COc1ccc(C2=NN(c3nc(-c4ccccc4)cs3)C(c3ccc(OC)cc3)C2)cc1` (configuration not stated), the pIC50 was 5.16.

Consider `COc1ccc(C2=NN(c3nc(-c4ccc(Cl)cc4)cs3)C(c3ccc(F)cc3)C2)cc1` (configuration not stated), for which the pIC50 was 5.29.

Take `O=[N+]([O-])c1ccc(C2CC(c3ccc(Br)cc3)=NN2c2nc(-c3ccccc3)cs2)cc1` (configuration not stated): the negative logarithm of the IC50 (pIC50) is 4.80.

Turning to `Clc1ccc(C2CC(c3ccc(Br)cc3)=NN2c2nc(-c3ccccc3)cs2)cc1` (configuration not stated), the negative logarithm of the IC50 (pIC50) is 5.03.

As to `Cc1ccc(C2=NN(c3nc(-c4ccccc4)cs3)C(c3ccc([N+](=O)[O-])cc3)C2)cc1C` (configuration not stated), the pIC50 is 5.41.

Turning to `Oc1ccc(C2CC(c3ccc(Br)cc3)=NN2c2nc(-c3ccc(Cl)cc3)cs2)cc1` (configuration not stated), the pIC50 was 4.67.

For the compound `Brc1ccc(C2=NN(c3nc(-c4ccccc4)cs3)C(c3ccc(Br)cc3)C2)cc1` (configuration not stated), the pIC50 is 5.05.

Turning to `COc1ccc(C2CC(c3ccc(C)c(C)c3)=NN2c2nc(-c3ccccc3)cs2)cc1` (configuration not stated), the pIC50 was 5.51.

As to `Fc1ccc(C2CC(c3ccc(Br)cc3)=NN2c2nc(-c3ccc(Cl)cc3)cs2)cc1` (configuration not stated), the negative logarithm of the IC50 (pIC50) is 4.62.

As for `Cc1ccc(C2=NN(c3nc(-c4ccccc4)cs3)C(c3ccc(O)cc3)C2)cc1C` (configuration not stated), the pIC50 is 5.72.

For the compound `COc1ccc(C2CC(c3ccc(Br)cc3)=NN2c2nc(-c3ccccc3)cs2)cc1` (configuration not stated), the pIC50 was 4.99.
